Measured values: patent US20050281879A1, “Excipients in drug delivery vehicles” (priority 2003, published 2005)
Counter-ions that a name gives are not always drawn.

Assays:
[1] = Saturation concentration of bupivacaine hydrochloride in de-ionized water; assay type: physicochemical; details: DI water
Method: Bupivacaine hydrochloride (Sigma-Aldrich Corporation, St. Louis, Mo.) was dissolved in de-ionized (DI) water at a concentration of 40 mg/ml (saturation). A calculated amount of sodium hydroxide (1 N solution) was added to the solution and the pH of the final mixtures was adjusted to 10 to precipitate the BP base. The precipitated product was filtered, and further washed with DI water for at least three times. The precipitated product was dried at approximately 40° C. in vacuum for 24 hours.

[2] = cited from earlier work

| concentration in de-ionized water (saturation) [1] | Compound | reported solubility in water [2] |
| --- | --- | --- |
| 40000 µg/mL | CCCCN1CCCCC1C(=O)Nc1c(C)cccc1C (centres unmarked) [Bupivacaine hydrochloride] |  |
|  | CC(=O)OCC(COC(C)=O)OC(C)=O [triacetin] | 7.17 grams in 100 ml of water |
